Data from US9718813B2, “Imidazolin-5-one derivative useful as FASN inhibitors for the treatment of cancer” (Janssen Pharmaceutica, NV, priority 2013, dated 2017).

Key:
[1] = molecular target: FASN Keto-reductase Domain (hFASN enzyme, full length) (Homo sapiens (Human), UniProt P49327); assay: Fatty Acid Synthase Keto-reductase Domain (FASN KR) Inhibition; type: biochemical; conditions: NADPH oxidation at 340 nm, ethyl acetoacetate substrate; for IC50: read-out: FASN Keto-reductase Domain pIC50 (converted)
Chain of FASN Keto-reductase Domain (hFASN enzyme, full length) (P49327 whole entry, the tested form may be a part): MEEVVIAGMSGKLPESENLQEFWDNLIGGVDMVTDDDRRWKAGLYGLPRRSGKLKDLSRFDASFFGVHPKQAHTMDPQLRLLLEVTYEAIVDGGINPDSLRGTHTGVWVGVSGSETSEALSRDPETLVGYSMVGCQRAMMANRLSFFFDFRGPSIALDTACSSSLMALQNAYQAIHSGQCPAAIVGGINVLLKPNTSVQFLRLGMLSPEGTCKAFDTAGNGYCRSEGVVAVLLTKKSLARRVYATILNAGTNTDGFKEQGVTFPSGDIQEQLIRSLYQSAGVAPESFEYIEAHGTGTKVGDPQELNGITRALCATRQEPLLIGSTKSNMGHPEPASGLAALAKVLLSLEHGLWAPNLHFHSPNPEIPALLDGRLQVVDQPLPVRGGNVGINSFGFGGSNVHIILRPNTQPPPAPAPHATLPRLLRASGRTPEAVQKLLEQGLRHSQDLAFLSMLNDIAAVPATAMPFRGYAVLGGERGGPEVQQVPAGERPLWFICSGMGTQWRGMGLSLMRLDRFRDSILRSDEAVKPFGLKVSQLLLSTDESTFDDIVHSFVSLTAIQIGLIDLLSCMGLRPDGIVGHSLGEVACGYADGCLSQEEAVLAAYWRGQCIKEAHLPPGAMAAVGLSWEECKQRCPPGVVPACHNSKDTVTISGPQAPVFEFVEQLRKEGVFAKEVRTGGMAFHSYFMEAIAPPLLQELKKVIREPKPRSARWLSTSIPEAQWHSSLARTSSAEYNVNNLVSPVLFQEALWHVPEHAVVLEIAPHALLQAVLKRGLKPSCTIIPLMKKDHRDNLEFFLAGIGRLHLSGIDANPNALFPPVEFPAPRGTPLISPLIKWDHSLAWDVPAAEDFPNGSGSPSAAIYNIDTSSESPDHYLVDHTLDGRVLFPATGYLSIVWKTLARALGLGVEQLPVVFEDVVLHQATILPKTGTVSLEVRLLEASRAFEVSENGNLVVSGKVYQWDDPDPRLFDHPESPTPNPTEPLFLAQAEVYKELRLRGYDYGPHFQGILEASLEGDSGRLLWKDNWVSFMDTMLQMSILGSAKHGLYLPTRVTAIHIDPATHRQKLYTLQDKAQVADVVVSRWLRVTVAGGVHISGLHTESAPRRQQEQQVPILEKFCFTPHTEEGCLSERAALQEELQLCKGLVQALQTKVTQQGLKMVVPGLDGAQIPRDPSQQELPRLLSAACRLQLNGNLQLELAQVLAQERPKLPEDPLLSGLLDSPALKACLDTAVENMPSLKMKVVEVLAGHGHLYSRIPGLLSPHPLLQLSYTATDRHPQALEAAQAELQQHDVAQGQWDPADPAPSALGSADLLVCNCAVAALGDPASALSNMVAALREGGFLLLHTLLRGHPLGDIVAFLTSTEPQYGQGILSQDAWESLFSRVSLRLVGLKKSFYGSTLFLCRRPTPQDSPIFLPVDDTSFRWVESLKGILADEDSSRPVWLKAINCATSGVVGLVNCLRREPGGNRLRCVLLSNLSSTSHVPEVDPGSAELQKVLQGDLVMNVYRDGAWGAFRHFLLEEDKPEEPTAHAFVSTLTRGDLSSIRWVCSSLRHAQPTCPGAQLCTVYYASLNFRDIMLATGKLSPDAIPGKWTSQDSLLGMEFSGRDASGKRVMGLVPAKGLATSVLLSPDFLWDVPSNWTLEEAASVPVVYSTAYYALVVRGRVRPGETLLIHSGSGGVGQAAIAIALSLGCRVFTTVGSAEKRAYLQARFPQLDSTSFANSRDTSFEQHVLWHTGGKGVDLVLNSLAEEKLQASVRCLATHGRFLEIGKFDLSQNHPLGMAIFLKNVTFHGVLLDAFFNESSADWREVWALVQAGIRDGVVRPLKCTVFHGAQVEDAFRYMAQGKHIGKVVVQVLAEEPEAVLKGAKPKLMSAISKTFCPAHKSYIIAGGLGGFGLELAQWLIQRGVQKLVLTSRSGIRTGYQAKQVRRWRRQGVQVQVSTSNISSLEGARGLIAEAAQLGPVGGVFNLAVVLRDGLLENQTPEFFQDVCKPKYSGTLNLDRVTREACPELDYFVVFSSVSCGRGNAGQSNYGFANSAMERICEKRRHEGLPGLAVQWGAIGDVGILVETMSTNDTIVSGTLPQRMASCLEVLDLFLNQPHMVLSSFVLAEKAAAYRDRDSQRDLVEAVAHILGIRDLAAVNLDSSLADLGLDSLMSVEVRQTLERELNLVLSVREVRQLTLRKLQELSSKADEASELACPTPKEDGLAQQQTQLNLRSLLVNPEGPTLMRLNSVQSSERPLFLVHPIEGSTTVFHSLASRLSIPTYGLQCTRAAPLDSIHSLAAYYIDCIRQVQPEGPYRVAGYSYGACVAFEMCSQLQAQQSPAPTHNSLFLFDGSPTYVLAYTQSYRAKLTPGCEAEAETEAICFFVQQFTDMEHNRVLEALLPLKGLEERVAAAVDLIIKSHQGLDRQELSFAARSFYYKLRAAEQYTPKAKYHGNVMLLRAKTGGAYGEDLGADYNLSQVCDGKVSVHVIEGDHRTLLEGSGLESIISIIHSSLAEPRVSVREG
Description: After 20 minutes incubation at room temperature the plate was measured again (T2).
The decrease in absorbance was calculated as (Absorbance before incubation T1)−(Absorbance following incubation T2).
(§1) Raw data generated by the instrument were normalized to % Controlmin values, which were calculated as: % Controlmin=100*(x−mLC)/(mHC−mLC)
(§2) where mLC and mHC were the means of the low control wells and high control wells on the plate, after manual exclusion of outliers. A plot of Controlmin versus test compound concentration was fitted to a 4-parameter logistic curve using a non-linear least squares regression method.

[2] = molecular target: hFASN enzyme (full length) (Homo sapiens (Human), UniProt P49327); assay: Fatty Acid Synthase (FASN) Inhibition Scintillation Proximity Assay; type: biochemical; conditions: 3H-acetyl-CoA and malonyl-CoA substrates, SPA, mean if tested more than once; for IC50: read-out: Human FASN pIC50 (converted)
Chain of hFASN enzyme (full length) (P49327 whole entry, the tested form may be a part): as above
Description: In this assay, inhibition of FASN activity is measured using ^3H-acetyl-CoA and malonyl-CoA as substrates. ^3H-Acetyl CoA is converted to ^3H-palmitate through a series of reactions by the FASN protein, which contains 7 functional domains and carries out 7 enzymatic reactions to ultimately produce ^3H-palmitate. The assay principle is based upon the fact that ^3H-acetyl-CoA is hydrophilic and the end product, ^3H-palmitate is hydrophobic.
10 μL assay buffer (100 mM KH2PO4 pH 7.5, 1 mM DTT) (20 μL in blanks) was added to a 384-well white Opti Plate plate (Perkin Elmer). 0.9 μL test compound (at concentrations of 30 μM, 10 μM, 3 μM, 1 μM, 0.30 μM, 0.10 μM, 0.03 μM and 0.01 μM)/DMSO and 10 μL hFASN enzyme (full length, 300 ng, purified in house) or 10 μL assay buffer was added to the wells. […] The reaction was stopped by adding 20 μL Streptavidin coupled imaging beads (25 mg/ml). After incubation for 30 minutes at room temperature in the dark, the 384 well plate was centrifuged at 1500 rpm for 3 minutes and was measured after at least 24 hrs by the LEADseeker™, measuring emission using a 610±20 nm pass filter.
as §1, §2

| Compound | IC50 [1] | IC50 [2] | FASN Keto-reductase Domain pIC50 [1] | Human FASN pIC50 [2] |
| --- | --- | --- | --- | --- |
| CC1(c2ccccc2)N=C(c2ccc(-c3ccc4occc4c3)cc2)N(C[C@@H]2CCN(C(=O)C3CC3)C2)C1=O (mixture of isomers) [Compound 5, (4RS)-2-(4-(Benzofuran-5-yl)phenyl)-1-(((R)-1-(cyclopropanecarbonyl)pyrrolidin-3-yl)methyl)-4-methyl-4-phenyl-1H-imidazol-5(4H)-one] | 537 nM | 155 nM | – | – |
| CC1(c2ccccc2)N=C(c2ccc(-c3ccc4[nH]ccc4c3)cc2)N(C[C@@H]2CCN(C(=O)C3CC3)C2)C1=O (mixture of isomers) [Compound 7, (4RS)-2-(4-(1H-Indol-5-yl)phenyl)-1-(((R)-1-(cyclopropanecarbonyl)pyrrolidin-3-yl)methyl)-4-methyl-4-phenyl-1H-imidazol-5(4H)-one] | 129 nM | 72.4 nM | – | – |
| COCC1(C)N=C(c2ccc(-c3ccc4occc4c3)cc2)N(C[C@@H]2CCN(C(=O)C3CC3)C2)C1=O (mixture of isomers) [Compound 8, (4RS)-2-(4-(Benzofuran-5-yl)phenyl)-1-(((R)-1-(cyclopropanecarbonyl)pyrrolidin-3-yl)methyl)-4-(methoxymethyl)-4-methyl-1H-imidazol-5(4H)-one] | 389 nM | 240 nM | – | – |
| CC1(C2CC2)N=C(c2ccc(-c3ccc4occc4c3)cc2)N(C[C@@H]2CCN(C(=O)C3CC3)C2)C1=O (mixture of isomers) [Compound 9, (4RS)-2-(4-(Benzofuran-5-yl)phenyl)-1-(((R)-1-(cyclopropanecarbonyl)pyrrolidin-3-yl)methyl)-4-cyclopropyl-4-methyl-1H-imidazol-5(4H)-one] | 603 nM | 331 nM | – | – |
| CC1(C)N=C(c2ccc(-c3ccc4[nH]ccc4c3)cc2)N(C[C@@H]2CCN(C(=O)C3CC3)C2)C1=O [Compound 1, (R)-2-(4-(1H-Indol-5-yl)phenyl)-1-((1-(cyclopropanecarbonyl)pyrrolidin-3-yl)methyl)-4,4-dimethyl-1H-imidazol-5(4H)-one] | – | – | 6.86 | 7.32 |
| Cn1ncc2cc(-c3ccc(C4=NC(C)(C)C(=O)N4C[C@@H]4CCN(C(=O)C5CC5)C4)cc3)ccc21 [Compound 2, (R)-1-((1-(cyclopropanecarbonyl)pyrrolidin-3-yl)methyl)-4,4-dimethyl-2-(4-(1-methyl-1H-indazol-5-yl)phenyl)-1H-imidazol-5(4H)-one] | – | – | 6.15 | 6.85 |
| CC1(C)N=C(c2ccc(-c3ccc4occc4c3)cc2)N(C[C@@H]2CCN(C(=O)C3CC3)C2)C1=O [Compound 3, (R)-2-(4-(benzofuran-5-yl)phenyl)-1-((1-(cyclopropanecarbonyl)pyrrolidin-3-yl)methyl)-4,4-dimethyl-1H-imidazol-5(4H)-one] | – | – | 6.33 | 7.09 |
| CC1(C)N=C(c2ccc(-c3ccc4occc4c3)cc2)N(C[C@@H]2CCN(C(=O)C3(F)CC3)C2)C1=O [Compound 4, (R)-2-(4-(benzofuran-5-yl)phenyl)-1-((1-(1-fluorocyclopropanecarbonyl)pyrrolidin-3-yl)methyl)-4,4-dimethyl-1H-imidazol-5(4H)-one] | – | – | 6.22 | 6.92 |
| CC1(C)N=C(c2ccc(-c3nc4ccccc4o3)cc2)N(C[C@@H]2CCN(C(=O)C3CC3)C2)C1=O [Compound 11, (R)-2-(4-(benzo[d]oxazol-2-yl)phenyl)-1-((1-(cyclopropanecarbonyl)pyrrolidin-3-yl)methyl)-4,4-dimethyl-1H-imidazol-5(4H)-one] | – | – | 5.41 | 6.20 |
| CC1(C)N=C(c2ccc(-c3ccc(-c4ccncc4)cc3)cc2)N(C[C@@H]2CCN(C(=O)C3CC3)C2)C1=O [Compound 15, (R)-1-((1-(cyclopropanecarbonyl)pyrrolidin-3-yl)methyl)-4,4-dimethyl-2-(4′-(pyridin-4-yl)-[1,1′-biphenyl]-4-yl)-1H-imidazol-5(4H)-one] | – | – | 6.75 | 7.40 |
| Cn1ncc2cc(-c3ccc(C4=NC(C)(C)C(=O)N4C[C@@H]4CCN(C(=O)C5(O)CC5)C4)c(F)c3)ccc21 [Compound 76, (R)-2-(2-fluoro-4-(1-methyl-1H-indazol-5-yl)phenyl)-1-((1-(1-hydroxycyclopropanecarbonyl)pyrrolidin-3-yl)methyl)-4,4-dimethyl-1H-imidazol-5(4H)-one] | – | – | – | 7.07 |
| CC1(C)N=C(c2ccc(-c3ccc4cc(F)ccc4c3)cc2F)N(C[C@@H]2CCN(C(=O)C3(O)CC3)C2)C1=O [Compound 88, (R)-2-(2-fluoro-4-(6-fluoronaphthalen-2-yl)phenyl)-1-((1-(1-hydroxycyclopropanecarbonyl)pyrrolidin-3-yl)methyl)-4,4-dimethyl-1H-imidazol-5(4H)-one] | – | – | – | 7.69 |
| Cn1cnc2cc(-c3ccc(C4=NC(C)(C)C(=O)N4C[C@@H]4CCN(C(=O)C5(O)CC5)C4)c(F)c3)ccc21 [Compound 89, (R)-2-(2-fluoro-4-(1-methyl-1H-benzo[d]imidazol-5-yl)phenyl)-1-((1-(1-hydroxycyclopropanecarbonyl)pyrrolidin-3-yl)methyl)-4,4-dimethyl-1H-imidazol-5(4H)-one] | – | – | – | 7.22 |
| Cn1cnc2cc(-c3ccc(C4=NC(C)(C)C(=O)N4C[C@@H]4CCN(C(=O)C5(C)CC5)C4)c(F)c3)ccc21 [Compound 90, (R)-2-(2-fluoro-4-(1-methyl-1H-benzo[d]imidazol-5-yl)phenyl)-4,4-dimethyl-1-((1-(1-methylcyclopropanecarbonyl)pyrrolidin-3-yl)methyl)-1H-imidazol-5(4H)-one] | – | – | – | 7.10 |
| Cc1cc(-c2ccc3c(c2)ncn3C)ccc1C1=NC(C)(C)C(=O)N1CC1CN(C(=O)C2(O)CC2)C1 [Compound 91, 1-((1-(1-hydroxycyclopropanecarbonyl)azetidin-3-yl)methyl)-4,4-dimethyl-2-(2-methyl-4-(1-methyl-1H-benzo[d]imidazol-5-yl)phenyl)-1H-imidazol-5(4H)-one] | – | – | – | 6.37 |
| Cc1cc(-c2ccc3c(c2)ncn3C)ccc1C1=NC(C)(C)C(=O)N1C[C@@H]1CCN(C(=O)C2(O)CC2)C1 [Compound 92, (R)-1-((1-(1-hydroxycyclopropanecarbonyl)pyrrolidin-3-yl)methyl)-4,4-dimethyl-2-(2-methyl-4-(1-methyl-1H-benzo[d]imidazol-5-yl)phenyl)-1H-imidazol-5(4H)-one] | – | – | – | 7.04 |
| Cn1cnc2cc(-c3ccc(C4=NC(C)(C)C(=O)N4CC4CN(C(=O)C5(C)CC5)C4)c(F)c3)ccc21 [Compound 93, 2-(2-fluoro-4-(1-methyl-1H-benzo[d]imidazol-5-yl)phenyl)-4,4-dimethyl-1-((1-(1-methylcyclopropanecarbonyl)azetidin-3-yl)methyl)-1H-imidazol-5(4H)-one] | – | – | – | 7.00 |
| Cn1cnc2cc(-c3ccc(C4=NC(C)(C)C(=O)N4CC4CN(C(=O)C5(O)CC5)C4)c(F)c3)ccc21 [Compound 94, 2-(2-fluoro-4-(1-methyl-1H-benzo[d]imidazol-5-yl)phenyl)-1-((1-(1-hydroxycyclopropanecarbonyl)azetidin-3-yl)methyl)-4,4-dimethyl-1H-imidazol-5(4H)-one] | – | – | – | 6.49 |
| Cn1cc(-c2ccc(-c3ccc(C4=NC(C)(C)C(=O)N4C[C@@H]4CCN(C(=O)C5(O)CC5)C4)c(F)c3)cc2)cn1 [Compound 95, (R)-2-(3-fluoro-4′-(1-methyl-1H-pyrazol-4-yl)-[1,1′-biphenyl]-4-yl)-1-((1-(1-hydroxycyclopropanecarbonyl)pyrrolidin-3-yl)methyl)-4,4-dimethyl-1H-imidazol-5(4H)-one] | – | – | – | 7.52 |
| Cc1cc(-c2ccc3cc(C#N)ccc3c2)ccc1C1=NC(C)(C)C(=O)N1CC1CN(C(=O)C2CC2)C1 [Compound 96, 6-(4-(1-((1-(cyclopropanecarbonyl)azetidin-3-yl)methyl)-4,4-dimethyl-5-oxo-4,5-dihydro-1H-imidazol-2-yl)-3-methylphenyl)-2-naphthonitrile] | – | – | – | 7.39 |
| CC1(C)N=C(c2ccc(-c3ccc4ncccc4c3)cc2)N(CC2CN(C(=O)C3CC3)C2)C1=O [Compound 98, 1-((1-(cyclopropanecarbonyl)azetidin-3-yl)methyl)-4,4-dimethyl-2-(4-(quinolin-6-yl)phenyl)-1H-imidazol-5(4H)-one] | – | > 10000 nM | – | – |
| CC1(C)N=C(c2ccc(-c3n[nH]c4ccccc34)cc2)N(CC2CN(C(=O)C3CC3)C2)C1=O [Compound 99, 2-(4-(1H-indazol-3-yl)phenyl)-1-((1-(cyclopropanecarbonyl)azetidin-3-yl)methyl)-4,4-dimethyl-1H-imidazol-5(4H)-one] | – | – | – | 5.26 |
